The subject of assay [1] is Pf Dd2. Description: P. falciparum (Dd2 strain) asexual blood stage assay, Pf Dd2. It is filed as cell-based. The note with it: Plasmodium falciparum, DD2, 72 h, read-out: Pf Dd2 IC50 (uM). The procedure: (§1) Assays using human blood cells infected with Plasmodium falciparum: (Pf) parasites, both wild-type strains as well as mutant drug-resistant strains, were performed as described below. Wild-type strains used were aatB Pf (Dd2 strain) and Pf (Dd2 strain). Mutant strains used were proguanil resistant attb Pf (Dd2 strain), dihydroorotate dehydrogenase (DHODH) deficient aatB Pf (Dd2 strain), and DHODH deficient and proguanil resistant Pf (Dd2 strain).
(§2) 2008 Jul. 1; 105(26):9059-64.
(§3) Parasitemia was estimated by blood smear Giemsa stain and visual inspection under the microscopic.
The screening plate was prepared by centrifuging for parasite culture for 5 min at 800×g at RT (low brake) and removing supernatant. A parasite suspension was prepared with 0.3% parasitemia and 4% hematocrit in screening medium (SM). The suspension was gassed with a gas mixture of 1% oxygen, 3% carbon dioxide, 96% nitrogen and stored at 37° C. for until ready to use. […]
(§4) 2 μl of detection reagent mixture (10×SYBR Green I (Invitrogen) in Lysis buffer (20 mM Tris/HCl, 5 mM EDTA, 0.16% Saponin wt/vol, 1.6% Triton X vol/vol) was added. Assay plates were read from the bottom by using the 2104 EnVision® Multilabel Reader (PerkinElmer) (485 nm excitation, 530 nm emission). The results are presented in Table 5 below.

In assay [2] the test system is 3D7 strain of Plasmodium falciparum. Nature of the assay: Potency in the 3D7 strain of Plasmodium falciparum (EC50). It is filed as cell-based. The note with it: Plasmodium falciparum.
Assay [3] deals with Wild-Type attB Pf Dd2. Nature of the assay: P. falciparum (Dd2 strain) asexual blood stage assay, wild-type attB. It is filed as cell-based. The note with it: Plasmodium falciparum. The procedure: as §1, §2, §3
(§5) The screening plate was prepared by centrifuging for parasite culture for 5 min at 800×g at RT (low brake) and removing supernatant. A parasite suspension was prepared with 0.3% parasitemia and 4% hematocrit in screening medium (SM). The suspension was gassed with a gas mixture of 1% oxygen, 3% carbon dioxide, 96% nitrogen and stored at 37° C. for until ready to use. 50 nl of 1 mM compound in DMSO was prespotted into 1536 well plates (final drug conc. of 12.5 μM, final DMSO conc. of 0.625%) with the acoustic dispenser ATS. Controls were Artemisinin, Chloroquine, and DMSO. 8 μl of SM was dispensed into 1,536-well, black, clear-bottom plates (Greiner) using the MultiFlo™ Microplate dispenser (BioTek) (final parasitemia of 0.3% and 2.5% hematocrit in SM). The plates were incubated at 37° C. for 72 h with water-soaked tissue in a closed ziploc bag gassed with 1% oxygen, 3% carbon dioxide, 96% nitrogen.
as §4

The subject of assay [4] is Proguanil resistant attB Pf Dd2. Description: P. falciparum (Dd2 strain) asexual blood stage assay, proguanil resistant attB. The format is cell-based, Plasmodium falciparum. To be noted: for IC50: Plasmodium falciparum, DD2, 72 h, read-out: Proguanil resistant attB Pf Dd2 IC50 (uM). The procedure: as §1, §2, §3, §5, §4
Setting [5] is: 3D7, read-out: 3D7 Mean EC50 (μM).
Setting [6] is: DD2, 72 h, read-out: Wild-Type attB Pf Dd2 IC50 (uM).
The mark [7] stands for this setting: DD2, read-out: IC50 against wild-type attB Pf.

Read-outs that look alike come from different tables or passages of the source.

The IC50 is the midpoint of a concentration-inhibition curve. For orientation: EC50 means the concentration giving half of the maximal effect. For `O=C(Nc1ccc(F)c(F)c1)c1c2c(nc3ccccc13)CCN(Cc1ccccc1)C2` [Compound 66, 2-Benzyl-N-(3,4-difluorophenyl)-1,2,3,4-tetrahydrobenzo[b][1,6]naphthyridine-10-carboxamide], the IC50 in assay [1] is 0.302 µM; in assay [3] (setting [6]), 0.0565 µM; in assay [3] (setting [7]) it was 0.0556 µM; in assay [4] it was 0.0699 µM. For the same compound, the EC50 in assay [2] (3D7, read-out: 3D7 EC50) is 0.0204 µM; in assay [2] (setting [5]), > 3.49 µM.

With `O=C1c2c3c(nc4ccccc24)CCN(Cc2ccccc2)C3N1c1ccc(F)c(F)c1` (stereo not drawn) [Compound 177, 3-Benzyl-2-(3,4-difluorophenyl)-2a,3,4,5-tetrahydrobenzo[b]pyrrolo[4,3,2-de][1,6]naphthyridin-1(2H)-one], the IC50 in assay [1] turned out to be 0.0063 µM; in assay [3] (setting [6]), 0.00895 µM; in assay [3] (setting [7]), 0.00895 µM; in assay [4] it was 0.0113 µM. Besides, in assay [2] (setting [5]), the EC50 turned out to be 0.00328 ± 0.000533 µM. In assay [4] (in words), the “potency against a proguanil resistant attB mutant strain” value was “undiminished potency”.

These data come from patent publication US12370183B2, “Compositions and methods for treating malaria” (Rutgers, The State University of New Jersey, priority 2020, dated 2025).
